{"source": "patent US20100285038A1", "about": "“Factor Involved in Metastasis and Uses Thereof” (priority 2002, published 2010)", "format_in_all_cases": "cell-based, human", "key": {"PRF1 protein": {"tested_on": "PRF1 protein", "test": "Western blot analysis of PRF1 protein expression in PC-3 cells", "details": "for expressed PRF1 protein: lysates of PC-3 cells treated with PRF1 specific GeneBlocs or mismatches, polyclonal antibody (FIG. 8A); for expression of PRF1 protein: PC-3 cells under hypoxic conditions, 72 h GeneBloc treatment, CoCl2 treatment for 24 h (FIG. 10B)", "procedure": "A polyclonal antibody was generated against PRF1 using standard techniques. The polyclonal antibody thus obtained was tested for its specificity for PRF1. For that purpose, cell lysates from PC-3 cells treated with PRF1 specific antisense molecules, more particularly gene blocks, or mismatches thereof and cells transfected with expression plasmides for recombinant HA-tagged PRF1 were prepared. The lysates were analysed by Western blot analysis using the polyclonal antibody and the results are depicted in FIG. 8 A.\nTo investigate whether PI 3-kinase activity has an impact on PRF1 protein expression, PC-3 cells were treated either with LY294002 or with DMSO as control. Analysis was performed by Western Blot analysis using the polyclonal antibody as detection means for PRF1 protein. Apart from PRF1 protein, also expression of Akt and phosphorylated Akt (P*Akt) was monitored using respective specific antibodies. Additionally, the expression of p110α and p85 was monitored.\n(§1) To investigate whether the expression of PRF1 at the protein level would also be dependent on Akt (PKB) activity and HIF1α activity PC-3 cells were treated with Akt specific antisense molecules. More particularly, two antisense molecules, designated Akt1-GB and Akt2-molecule were used with the readout being the same as discussed in connection with FIG. 9, whereby, additionally, the HIF1α protein expression was monitored using a commercially available protein G-purified polyclonal antibody (R&DSystems, Lot Number: IUGO13071).\n(§2) The same experiment using the same markers for monitoring except Akt and P*-Akt was carried out with cells grown under hypoxic conditions which was realized by treating the cells with CoCl2. Two different forms of antisense molecules, namely HIF1α-GB66 and HIF1α-GB67 were used and respective mismatches used as controls.\n(§3) A lane of the Blot represents the cell lysate of the cells shown in the corresponding photograph. As a read-out, p110 alpha and p85 are shown as loading control and the component of the PI-3K pathway investigated, i.e. AKT, monitored as P*AKT, HIF1 alpha and PRF1."}, "[1]": {"tested_on": "PRF1 (NM—019058) specific mRNA", "test": "PRF1 mRNA knock-down by real time RT-PCR (Taqman) in transfected PC-3 cells", "details": "PC-3 cells seeded on matrigel; standardized to internal p110α mRNA levels; DCt method", "procedure": "Transfections were carried out in 96 well or 10-cm plates (at 30% to 50% confluency) by using various cationic lipids such as Oligofectamine, Lipofectamine (Life Technologies), NC388 (Ribozyme Pharmaceuticals, Inc., Boulder, Colo.), or FuGene 6 (Roche) according to the manufacturer's instructions. GeneBlocs were transfected by adding pre-formed 5× concentrated complex of GeneBloc and lipid in serum-free medium to cells in complete medium. The total transfection volume was 100 μl for cells plated in 96 wells and 10 ml for cells in 10 cm plates. The final lipid concentration was 0.8 to 1.2 μg/ml depending on cell density; the GeneBloc concentration is indicated in each experiment.\nThe RNA of cells transfected in 96-wells was isolated and purified using the Invisorb RNA HTS 96 kit (InVitek GmbH, Berlin). Inhibition of PRF1 mRNA expression was detected by real time RT-PCR (Taqman) analysis using 300 nM PRF1 5′ primer, 300 nM PRF1 3′ primer and 100 nM of the PRF1 Taqman probe Fam-Tamra labelled. […]\nPC3 cells were transfected and seeded on matrigel as described and growth was monitored. mRNA was isolated from an aliquot of the cells seeded on matrigel and analysed using Taqman assay (left panel). […]"}, "PC-3 cells": {"tested_on": "PC-3 cells", "test": "In vitro growth on Matrigel matrix", "details": "PC-3 cells transfected with GeneBloc; versus corresponding mismatched oligonucleotides", "procedure": "PC3 cells were treated with 10 μM LY294002 or DMSO when seeded on Matrigel. If cells were transfected previous to seeding cells were transfected with GeneBloc and trypsinized 48 h post transfection. The cells were washed in medium and seeded into duplicate 24-wells (100.000 cells per well) pre-coated with 250 μl matrigel basement membrane matrix (Becton Dickinson). After incubation for 24 to 72 h photographs were taken at 5× magnification with an Axiocam camera attached to an Axiovert 5100 microscope (Zeiss).\nA more confluent growth of the cells is taken as an indication that their metastasis and migration behavior is increased which allows the cells to spread over the three-dimensional structure provided by the matrigel. The result of this example is depicted in FIG. 5.\nPC3 cells were transfected and seeded on matrigel as described and growth was monitored. mRNA was isolated from an aliquot of the cells seeded on matrigel and analysed using Taqman assay (left panel). PRF1 (NM_019058) specific mRNA was standardized to internal p110α mRNA levels. A PTEN specific GeneBloc is used as a negative control in the PTEN^−/− PC-3 cells and a p110β specific GeneBloc is used as a positive control for growth in extracellular matrix. […]"}, "HIF1α": {"tested_on": "HIF1α", "test": "Western blot analysis of HIF1α protein expression in PC-3 cells", "details": "PC-3 cells under hypoxic conditions; 72 h GeneBloc treatment, CoCl2 treatment for 24 h (FIG. 10B)", "procedure": "as §1, §2, §3"}}, "note": "d = 2'-deoxy (DNA); m = 2'-O-methyl", "data": [{"substance": "GeneBloc 70168: mismatched oligonucleotide (4 mismatches) corresponding to 70043, alias FLJ: 954L21, SEQ ID NO. 12 (CCGAAAAGAACAGTGCUCUCU; sugars from the 5' end m6 d9 m6, backbone and methylation of C not given here; DNA gap phosphorothioate-linked, flank linkages not clearly stated, further chemistry not fully specified)", "values": [{"measurement": "expressed PRF1 protein", "setting": "PRF1 protein", "value": "significantly expressed"}]}, {"substance": "GeneBloc 70044: third generation antisense oligonucleotide directed to PRF1 mRNA, SEQ ID NO. 8 (antisense GCUCCUGCCTCTAGTCUCCAC; sugars from the 5' end m6 d9 m6, backbone and methylation of C not given here; DNA gap phosphorothioate-linked, flank linkages not clearly stated, further chemistry not fully specified)", "values": [{"measurement": "knockdown of the mRNA of PRF1", "setting": "[1]", "value": "significant knockdown"}, {"measurement": "expressed PRF1 protein", "setting": "PRF1 protein", "value": "significant decrease"}, {"measurement": "growth on matrigel", "setting": "PC-3 cells", "value": "Specific growth inhibition"}]}, {"substance": "HIF1α-GB67: GeneBloc antisense molecule specific for HIF1α, SEQ ID NO: 34 (antisense UGACUCCTTTTCCTGCUCUGU; sugars from the 5' end m6 d9 m6, backbone and methylation of C not given here; DNA gap phosphorothioate-linked, flank linkages not clearly stated, further chemistry not fully specified)", "values": [{"measurement": "expression of PRF1 protein", "setting": "PRF1 protein", "value": "reduced"}, {"measurement": "expression of HIF1α at the protein level", "setting": "HIF1α", "value": "significantly reduced"}]}, {"substance": "Akt2 GeneBloc: Akt specific antisense molecule (GeneBloc), SEQ ID NO: 38 (antisense UCCUUGTACCCAATGAAGGAG; sugars from the 5' end m6 d9 m6, backbone and methylation of C not given here; DNA gap phosphorothioate-linked, flank linkages not clearly stated, further chemistry not fully specified)", "values": [{"measurement": "PRF1 protein level", "setting": "PRF1 protein; PC-3 cells, 72 h after treatment with Akt specific antisense molecules (FIG. 10A)", "value": "reduction"}]}, {"substance": "HIF1α-GB66: GeneBloc antisense molecule specific for HIF1α, SEQ ID NO: 32 (antisense GGUAGUGGTGGCATTAGCAGU; sugars from the 5' end m6 d9 m6, backbone and methylation of C not given here; DNA gap phosphorothioate-linked, flank linkages not clearly stated, further chemistry not fully specified)", "values": [{"measurement": "expression of PRF1 protein", "setting": "PRF1 protein", "value": "reduced"}, {"measurement": "expression of HIF1α at the protein level", "setting": "HIF1α", "value": "significantly reduced"}]}]}
